We go through 15 molecules from patent publication US20060069013A1, “Pharmaceutical preparations comprising acid-stabilised insulin” (Novo Nordisk A/S, priority 2003, published 2006).

The conditions of the first data set: after subcutaneous injection of a soluble preparation; background statement; cited from earlier work.
“Co^3+-hexamer: "absorption rates vary between about 1 hour (for rapid-acting insulin analogues ...) and about 4 hours (Co^3+-hexamer)"”: the absorption rates entry is “about 4 hour”.

The same data set, now with this note: in vivo, sc; cited from earlier work.
Asp^B28 human insulin: the absorption rates entry is listed as “about 1 hour”.
Regarding “soluble human insulin hexamer: "inherent limitation of the absorption half-life to about 4 hours for a soluble human insulin hexamer"”, the absorption half-life entry is “about 4 hours”.

Conditions in the next data set: not given
Molecule `COc1cc(C=C2SC(=O)NC2=O)cc(I)c1O` [Example 167, 5-(4-Hydroxy-3-iodo-5-methoxybenzylidene)thiazolidine-2,4-dione] registered a melting point of 256 °C.
On the same count and under the same terms, the figure for `O=C1NC(=O)/C(=C/c2ccc3cc(O)ccc3c2)S1` [Example 171, 5-(6-Hydroxy-2-naphthylmethylene) thiazolidine-2,4-dione] is 310 to 314 °C.
Still for that read-out and setting: the figure for `O=C1NC(=O)/C(=C/c2c[nH]c3ccc([N+](=O)[O-])cc23)S1` [Example 199, 5-(5-Nitro-1H-indol-3-ylmethylene)thiazolidine-2,4-dione] is 330 to 333 °C; for `O=C1NC(=O)/C(=C/c2c(Cl)cccc2Cl)S1` [Example 229, 5-(2,6-Dichlorobenzylidene)thiazolidine-2,4-dione] it is 152 to 154 °C; for `COc1cc(O)cc(OC)c1/C=C1\SC(=O)NC1=O` [Example 234, 5-(4-Hydroxy-2,6-dimethoxybenzylidene)thiazolidine-2,4-dione] it is 331 to 333 °C.
Same read-out and setting: the result for `COc1cc(OCc2c(F)cccc2[N+](=O)[O-])cc(OC)c1/C=C1\SC(=O)NC1=O` [Example 237, 5-[4-(2-Fluoro-6-nitrobenzyloxy)-2,6-dimethoxybenzylidene]thiazolidine-2,4-dione] reads 255 to 256 °C.
`O=C1NC(=O)/C(=C/c2cc3ccccc3o2)S1` [Example 238, 5-Benzofuran-2-ylmethylenethiazolidine-2,4-dione]: the melting point was in the range of 265 to 266 °C.
Still for that read-out and setting: the result for `CN(C)c1ccc(/C=C/C=C2\SC(=O)NC2=O)cc1` [Example 239, 5-[3-(4-Dimethylaminophenyl)allylidene]thiazolidine-2,4-dione] reads 259 to 263 °C; that for `CC(/C=C1\SC(=O)NC1=O)=C\c1ccccc1` [Example 240, 5-(2-Methyl-3-phenylallylidene)thiazolidine-2,4-dione], 203 to 210 °C; that for `O=C1NC(=O)/C(=C/C(Cl)=C/c2ccccc2)S1` [Example 241, 5-(2-Chloro-3-phenylallylidene)thiazolidine-2,4-dione], 251 to 254 °C.
The same measure, in the same setting: the figure for `O=C1NC(=O)/C(=C/c2cc3ccccc3[nH]c2=O)S1` [Example 242, 5-(2-Oxo-1,2-dihydroquinolin-3-ylmethylene)thiazolidine-2,4-dione] is 338 to 347 °C; for `c1cc(COc2ccc3ccccc3c2)cc(-c2nnn[nH]2)c1` [Example 572, 5-(3-(Naphthalen-2-yloxymethyl)-phenyl)-1H-tetrazole] it is 200 to 202 °C.

As a reminder, the melting point is the temperature of the solid-liquid transition.
